Experimental data as given in the NIST ThermoML archive (doi:10.1021/je9004382).
± gives the expanded uncertainty stated by the source.

What was measured:
[1] = Crystal; DTA
[2] = Molar enthalpy of transition or fusion; conditions: Crystal; Adiabatic calorimetry

| Compound | Normal melting temperature [1] [°C] | Molar enthalpy of transition or fusion [2] [kcal/mol] |
| --- | --- | --- |
| COC(=O)C=Cc1ccc(O)cc1 [2-propenoic acid, 3-(4-hydroxyphenyl)-, methyl ester] | 137.56 ± 1.1 | 7.22 ± 0.43 |
| COC(=O)C=Cc1ccc(O)c(OC)c1 [methyl 3-(4-hydroxy-3-methoxyphenyl)-2-propenoate] | 62.56 ± 0.95 | 6.17 ± 0.43 |
| COC(=O)/C=C/c1cc(OC)c(O)c(OC)c1 [3,5-dimethoxy-4-hydroxy cinnamic acid methyl ester] | 88.64 ± 1.2 | 7.14 ± 0.669 |
